The text below walks through data of patent publication US4971975A (priority 1987, dated 1990).

Counter-ions that a name gives are not always drawn. Like-named read-outs stand apart in the source and are kept apart here.

Test [1] has as its target muscarinic receptors. The test can be described thus: Radio ligand binding: displacement of the muscarinic agonist 3H-OXO-M from rat cerebral cortex membranes. Also on record: species or system Hooded Lister rats. Conditions: displacement of agonist 3H-OXO-M (2 nM), 2 mM magnesium chloride, 37° C., 30 min.
For test [2], the target named is muscarinic receptors. Type of test: binding, Hooded Lister rats. The settings on record: displacement of antagonist 3H-QNB (0.27 nM), rat cerebral cortex membranes, 37° C., 30 min.

The IC50 is the midpoint of a concentration-inhibition curve. Read a high IC50 as lower potency. `COC(=O)C12CCCN(CC1)C2` (centres unmarked) [Compound E3, Methyl 1-azabicyclo[3.2.1]oct-5-ylcarboxylate oxalate salt]: the values for the IC50 in test [1] and in test [2] were 0.014 µM and 6.7 µM, respectively.

As to `COC(=O)C12CCN(CC1)C2` [Compound E6, Methyl 1-azabicyclo[2.2.1]hept-4-ylcarboxylate oxalate salt], the IC50 in test [1] is 0.042 µM; in test [2] it was 29 µM.

As for `Cc1noc(C23CCCN(CC2)C3)n1` (centres unmarked) [Compound E10, 5-(3-Methyl-1,2,4-oxadiazol-5-yl)-1-azabicyclo[3.2.1]octane oxalate salt], the IC50 came out at 0.017 µM in test [1] and 4 µM in test [2].

For `Cc1noc(C23CCN(CC2)C3)n1` [Compound E11, 4-(3-Methyl-1,2,4-oxadiazol-5-yl)-1-azabicyclo[2.2.1]-heptane oxalate salt], the IC50 in test [1] was found to be 0.093 µM; in test [2], 14 µM.

With `c1coc(C23CCCN(CC2)C3)n1` (centres unmarked) [Compound E12, 5-(1,3-Oxazol-2-yl)-1-azabicyclo[3.2.1]octane oxalate salt], the IC50 is 0.145 µM in test [1] and 15 µM in test [2].

Consider `Cc1nnc(C23CCCN(CC2)C3)o1` (centres unmarked) [Compound E13, 5-(2-Methyl-1,3,4-oxadiazol-5-yl)-1-azabicyclo3.2.1]octane oxalate salt], for which the results for the IC50 in test [1] and in test [2] were 0.039 µM and 9.4 µM, respectively.

For the molecule `c1nnc(C23CCCN(CC2)C3)o1` (centres unmarked) [Compound E14, 5-(1,3,4-Oxadiazol-2-yl)-1-azabicyclo[3.2.1]octane oxalate salt], the values for the half-maximal inhibitory concentration (IC50) in test [1] and in test [2] were 0.16 µM and 9 µM, respectively.

Take `c1cc(C23CCCN(CC2)C3)on1` (centres unmarked) [Compound E15, 5-(1,2-Oxazol-5-yl)-1-azabicyclo[3.2.1]octane oxalate salt]: the IC50 in test [1] is 0.13 µM; in test [2], 7.8 µM.

In the case of `Cc1nnc(C23CCN(CC2)C3)o1` [Compound E17, 4-(2-Methyl-1,3,4-oxadiazol-5-yl)-1-azabicyclo[2.2.1]heptane oxalate salt], the half-inhibitory concentration (IC50) in test [1] stood at 0.23 µM; in test [2] it was 48 µM.

Consider `c1coc(C23CCCN(CC2)C3)c1` (centres unmarked) [Compound E21, 5-(Fur-2-yl)-1-azabicyclo[3.2.1]octane hydrochloride salt], for which the IC50 in test [1] was 0.034 µM; in test [2], 3.8 µM.
